According to the supplement of paper PMC11061612:

Experiments:
[1] = compound: CCc1c2c(nc3ccc(O)cc13)-c1cc3c(c(=O)n1C2)COC(=O)[C@]3(O)CC [SN-38]; settings: max 0.3 µM
Method in brief: (§1)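 In 1536-well plates, cancer cell lines in 7.5 μl DMEM/F12 or RPMI with 10% FBS spent 24 hours at 37°C and 5% CO2 and were then dosed for 72 hours with final DMSO typically 0.2%. Viability was read by CellTiter-Glo 2.0 luminescence and scaled between blank-well and DMSO-well means. The single-agent IC50 was fitted from dose responses using a logistic curve in a non-linear mixed effects model, and that logistic curve had two parameters.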

[2] = compound: C[C@@H](Nc1cc(F)cc(F)c1)c1cc(C(=O)N(C)C)cc2c(=O)cc(N3CCOCC3)oc12 [AZD8186]; settings: max 10 µM
Method in brief: as §1

[3] = compound: C=CCn1c(=O)c2cnc(Nc3ccc(N4CCN(C)CC4)cc3)nc2n1-c1cccc(C(C)(C)O)n1 [AZD1775]; settings: max 3 µM
Method in brief: as §1

[4] = compound: Cc1c2c(nn1C)CSCc1cc(n(C)n1)CSc1cc(c3ccccc3c1)OCCCc1c(C(=O)O)n(C)c3c-2c(Cl)ccc13 [AZD5991]; settings: max 1 µM
Method in brief: as §1

[5] = compound: Cc1cc2ncnn2cc1Nc1ncc2c(n1)n(C1CCOCC1)c(=O)n2C [AZD7648]; settings: max 10 µM
Method in brief: as §1

[6] = compound: COc1cccc(OCCCN)c1-c1cc(Nc2cnc(C#N)cn2)n[nH]1 [Prexasertib]; settings: max 1 µM
Method in brief: as §1

[7] = compound: COc1nnc2ccc(N3CCC(c4ccc(OCCN5CCN(C)C(=O)[C@H]5C)cc4)CC3)nn12 [AZD5153]; settings: max 1 µM
Method in brief: as §1

[8] = compound: O=C(c1cc(Cc2n[nH]c(=O)c3ccccc23)ccc1F)N1CCN(C(=O)C2CC2)CC1 [Olaparib]; settings: max 10 µM
Method in brief: as §1

[9] = compound: C1CC(C1)(C(=O)[O-])C(=O)[O-].N.N.[Pt+2] [Carboplatin]; settings: max 10 µM
Method in brief: as §1

[10] = compound: C[C@@H]1COCCN1C2=NC(=NC(=C2)C3(CC3)[S@](=N)(=O)C)C4=C5C=CNC5=NC=C4 [AZD6738]; settings: max 10 µM
Method in brief: as §1

[11] = compound: CC(C)n1c(=O)n(C)c2cnc3cc(F)c(-c4ccc(OCCCN5CCCCC5)nc4)cc3c21 [AZD1390]; settings: max 0.3 µM
Method in brief: as §1

[12] = compound: CC(=O)c1c(C)c2cnc(Nc3ccc(N4CCNCC4)cn3)nc2n(C2CCCC2)c1=O [Palbociclib]; settings: max 10 µM
Method in brief: as §1

[13] = compound: COc1cc(Nc2ncc3c(n2)-c2ccc(Cl)cc2C(c2c(F)cccc2OC)=NC3)ccc1C(=O)O [Alisertib]; settings: max 10 µM
Method in brief: as §1

[14] = compound: COc1cccc2c1C(=O)c1c(O)c3c(c(O)c1C2=O)C[C@@](O)(C(=O)CO)C[C@@H]3O[C@H]1C[C@H](N)[C@H](O)[C@H](C)O1 [Doxorubicin]; settings: max 1 µM
Method in brief: as §1

[15] = compound: CC(=O)O[C@H]1C(=O)[C@@]2(C)[C@H]([C@H](OC(=O)c3ccccc3)[C@]3(O)C[C@H](OC(=O)[C@H](O)[C@@H](NC(=O)c4ccccc4)c4ccccc4)C(C)=C1C3(C)C)[C@]1(OC(C)=O)CO[C@@H]1C[C@@H]2O [Paclitaxel]; settings: max 3 µM
Method in brief: as §1

[16] = compound: CN(C)CCCOc1ccc(-c2ccc3ncc4c(c3c2)n(C2CCOCC2)c(=O)n4C)cn1 [AZD0156]; settings: max 3 µM
Method in brief: as §1

[17] = compound: CN(CC[C@H](CSC1=CC=CC=C1)NC2=C(C=C(C=C2)S(=O)(=O)NC(=O)C3=CC=C(C=C3)N4CCC(CC4)[C@H](C5=CC=CC=C5C6=CC=C(C=C6)Cl)O)S(=O)(=O)C(F)(F)F)CCO [AZD4320]; settings: max 1 µM
Method in brief: as §1

[18] = compound: COc1cc([C@@H]2c3cc4c(cc3[C@@H](O[C@@H]3O[C@@H]5CO[C@@H](C)O[C@H]5[C@H](O)[C@H]3O)[C@H]3COC(=O)[C@H]23)OCO4)cc(OC)c1O [Etoposide]; settings: max 10 µM
Method in brief: as §1

[19] = compound: N#Cc1cnc(Nc2cc(NC[C@H]3CNCCO3)c(C(F)(F)F)cn2)cn1 [SRA737]; settings: max 10 µM
Method in brief: as §1

[20] = compound: CC1=C(C(=CC=C1)Cl)NC(=O)C2=CN=C(S2)NC3=CC(=NC(=N3)C)N4CCN(CC4)CCO [Dasatinib]; settings: max 2 µM
Method in brief: as §1

[21] = compound: Cc1nc(-c2cn3c(n2)-c2ccc(-c4cnn(C(C)(C)C(N)=O)c4)cc2OCC3)n(C(C)C)n1 [Taselisib]; settings: max 10 µM
Method in brief: as §1

[22] = compound: O=c1[nH]cc(F)c(=O)[nH]1 [5-Fluorouracil]; settings: max 20 µM
Method in brief: as §1

[23] = compound: C[C@@H](Oc1cc(-c2cnn(C3CCNCC3)c2)cnc1N)c1c(Cl)ccc(F)c1Cl [Crizotinib]; settings: max 10 µM
Method in brief: as §1

[24] = compound: NC1(c2ccc(-c3nc4ccn5c(=O)[nH]nc5c4cc3-c3ccccc3)cc2)CCC1 [MK-2206]; settings: max 10 µM
Method in brief: as §1

[25] = compound: Nc1ccn([C@@H]2O[C@H](CO)[C@@H](O)C2(F)F)c(=O)n1 [Gemcitabine]; settings: max 0.3 µM
Method in brief: as §1

[26] = compound: CC1(C)CCC(CN2CCN(c3ccc(C(=O)NS(=O)(=O)c4ccc(NCC5CCOCC5)c([N+](=O)[O-])c4)c(Oc4cnc5[nH]ccc5c4)c3)CC2)=C(c2ccc(Cl)cc2)C1 [Venetoclax]; settings: max 1 µM
Method in brief: as §1

[27] = compound: O=C(Nc1ccc2[nH]nc(-c3ccncc3)c2c1)[C@@H]1CCN(CC(=O)N2CCN(c3ccc(-c4ncccn4)cc3)CC2)C1; settings: max 5 µM
Method in brief: as §1

[28] = compound: C1CN(CCC1(C(=O)N[C@@H](CCO)C2=CC=C(C=C2)Cl)N)C3=NC=NC4=C3C=CN4 [AZD5363]; settings: max 10 µM
Method in brief: as §1

[29] = compound: C[C@@H](c1ccc2nccn2c1)n1nnc2ncc(-c3cnn(C)c3)nc21 [Savolitinib]; settings: max 1 µM
Method in brief: as §1

[30] = compound: CS(=O)(=O)CCNCc1ccc(-c2ccc3ncnc(Nc4ccc(OCc5cccc(F)c5)c(Cl)c4)c3c2)o1 [Lapatinib]; settings: max 10 µM
Method in brief: as §1

[31] = compound: Cn1cnc2c(F)c(Nc3ccc(Br)cc3Cl)c(C(=O)NOCCO)cc21 [Selumetinib]; settings: max 10 µM
Method in brief: as §1

[32] = compound: COc1cc2ncnc(Nc3ccc(F)c(Cl)c3)c2cc1OCCCN1CCOCC1 [Gefitinib]; settings: max 10 µM
Method in brief: as §1

[33] = compound: CC(=O)Nc1cccc(-n2c(=O)n(C3CC3)c(=O)c3c(Nc4ccc(I)cc4F)n(C)c(=O)c(C)c32)c1 [Trametinib]; settings: max 1 µM
Method in brief: as §1

[34] = compound: CC1=CN2[C@@H](C1)C=NC3=CC(=C(C=C3C2=O)OC)OCCCCCOC4=C(C=C5C(=C4)N=C[C@@H]6CC(=CN6C5=O)C)OC [SG3199]; settings: max 0.001 µM
Method in brief: as §1

[35] = compound: CCN(CCO)CCCOc1ccc2c(Nc3cc(CC(=O)Nc4cccc(F)c4)[nH]n3)ncnc2c1 [AZD2811]; settings: max 1 µM
Method in brief: as §1

Row | Cell Line | IC50, cell viability 72 h [1] [µM] | IC50, cell viability 72 h [2] [µM] | IC50, cell viability 72 h [3] [µM] | IC50, cell viability 72 h [4] [µM] | IC50, cell viability 72 h [5] [µM] | IC50, cell viability 72 h [6] [µM] | IC50, cell viability 72 h [7] [µM] | IC50, cell viability 72 h [8] [µM] | IC50, cell viability 72 h [9] [µM] | IC50, cell viability 72 h [10] [µM] | IC50, cell viability 72 h [11] [µM] | IC50, cell viability 72 h [12] [µM] | IC50, cell viability 72 h [13] [µM] | IC50, cell viability 72 h [14] [µM] | IC50, cell viability 72 h [15] [µM] | IC50, cell viability 72 h [16] [µM] | IC50, cell viability 72 h [17] [µM] | IC50, cell viability 72 h [18] [µM] | IC50, cell viability 72 h [19] [µM] | IC50, cell viability 72 h [20] [µM] | IC50, cell viability 72 h [21] [µM] | IC50, cell viability 72 h [22] [µM] | IC50, cell viability 72 h [23] [µM] | IC50, cell viability 72 h [24] [µM] | IC50, cell viability 72 h [25] [µM] | IC50, cell viability 72 h [26] [µM] | IC50, cell viability 72 h [27] [µM] | IC50, cell viability 72 h [28] [µM] | IC50, cell viability 72 h [29] [µM] | IC50, cell viability 72 h [30] [µM] | IC50, cell viability 72 h [31] [µM] | IC50, cell viability 72 h [32] [µM] | IC50, cell viability 72 h [33] [µM] | IC50, cell viability 72 h [34] [µM] | IC50, cell viability 72 h [35] [µM]
1 | BL-41 (Burkitt's Lymphoma) | 0.00217 | > 10 | 0.264 | 0.0482 | > 10 | 0.00367 | 0.046 | > 10 | > 10 | 0.618 | > 0.3 | > 10 | 0.0285 | 0.0377 | 0.00391 | > 3 | > 1 | 0.342 | 2 | > 2 | > 10 | > 20 | 2.44 | > 10 | 0.0085 | > 1 | > 5 | > 10 | > 1 | 6.1 | > 10 | > 10 | > 1 | > 0.001 | 0.048
2 | WIL2-NS (Non-Cancerous) | 0.00465 | > 10 | 0.231 | > 1 | > 10 | 0.00604 | 0.0448 | > 10 | > 10 | 1.26 | > 0.3 | 0.629 | 0.927 | 0.105 | 0.0107 | > 3 | > 1 | 0.375 | 1.73 | 1.35 | 6.95 | > 20 | > 10 | 6.09 | 0.0078 | > 1 | > 5 | 2.38 | > 1 | > 10 | > 10 | > 10 | > 1 | > 0.001 | > 1
3 | BFTC-905 (Bladder Carcinoma) | 0.00455 | > 10 | 0.68 | > 1 | > 10 | 0.117 | 0.173 | > 10 | > 10 | 3.79 | > 0.3 | > 10 | 1.25 | 0.196 | 0.00602 | > 3 | > 1 | 1.16 | > 10 | 1.53 | 1.39 | > 20 | 5.24 | > 10 | 0.0107 | > 1 | 1.05 | > 10 | > 1 | > 10 | 6.56 | > 10 | 0.0864 | > 0.001 | > 1
